In US11819497B2 (Azurity Pharmaceuticals, Inc., priority 2018, dated 2023):
Values after ≈ are worked out from the molar mass of the structure shown.

Experiment: Solubility of nimodipine in various aqueous solvent systems
Assay type: physicochemical
Details: for solubility: aqueous solvent system (glycerin/ethanol/water/PEG400), aqueous with cosolvent or surfactant or cyclodextrin, thermodynamic from solid, Nimodipine solubility

solubility (Glycerin 0%, Ethanol 0%, Water 1%, PEG400 99%): 43000 µg/mL (≈ 103 mM) | solubility (Glycerin 0%, Ethanol 0%, Water 5%, PEG400 95%): 38000 µg/mL (≈ 90.8 mM) | solubility (Glycerin 0%, Ethanol 0%, Water 10%, PEG400 90%): 26000 µg/mL (≈ 62.1 mM) | solubility (Glycerin 0%, Ethanol 0%, Water 15%, PEG400 85%): 14000 µg/mL (≈ 33.5 mM) | solubility (Glycerin 0%, Ethanol 0%, Water 40%, PEG400 60%): 1300 µg/mL (≈ 3.11 mM) | solubility (Glycerin 0%, Ethanol 0%, Water 50%, PEG400 50%): 400 µg/mL (≈ 0.956 mM) | solubility (Glycerin 0%, Ethanol 1.0%, Water 10%, PEG400 89%): 31000 µg/mL (≈ 74.1 mM) | solubility (Glycerin 0%, Ethanol 1.0%, Water 20%, PEG400 79%): 18000 µg/mL (≈ 43 mM) | solubility (Glycerin 0%, Ethanol 5.0%, Water 10%, PEG400 85%): 29000 µg/mL (≈ 69.3 mM) | solubility (Glycerin 0%, Ethanol 5.0%, Water 20%, PEG400 75%): 14000 µg/mL (≈ 33.5 mM) | solubility (Glycerin 20%, Ethanol 0%, Water 20%, PEG400 60%): 1500 µg/mL (≈ 3.58 mM) | solubility (Glycerin 30%, Ethanol 0%, Water 10%, PEG400 60%): 1600 µg/mL (≈ 3.82 mM) | solubility (Glycerin 35%, Ethanol 0.4%, Water 1%, PEG400 63%): 13400 µg/mL (≈ 32 mM) | solubility (Glycerin 35%, Ethanol 0.4%, Water 10%, PEG400 54%): 5700 µg/mL (≈ 13.6 mM) | solubility (Glycerin 36%, Ethanol 0.4%, Water 20%, PEG400 43% (Table VI)): 1500 µg/mL (≈ 3.58 mM) | solubility (Glycerin 36%, Ethanol 0.4%, Water 20%, PEG400 43% (Table VII)): 1500 µg/mL (≈ 3.58 mM) | solubility (Glycerin 39%, Ethanol 0%, Water 1%, PEG400 60%): 2100 µg/mL (≈ 5.02 mM) | solubility (Glycerin 46%, Ethanol 0.4%, Water 10%, PEG400 43%): 1500 µg/mL (≈ 3.58 mM) | solubility (Glycerin 51%, Ethanol 0.4%, Water 5%, PEG400 43%): 4300 µg/mL (≈ 10.3 mM) | solubility (Glycerin 55%, Ethanol 0.4%, Water 1%, PEG400 43%, room temperature): 5200 µg/mL (≈ 12.4 mM) | Effect of higher amounts of ethanol on nimodipine solubility (water, polyethylene glycol, ethanol solvent system, higher amounts of ethanol (Example 2)): reduced nimodipine solubility
SMILES: COCCOC(=O)C1=C(C)NC(C)=C(C(=O)OC(C)C)C1c1cccc([N+](=O)[O-])c1 (stereo not drawn) [Nimodipine]
